Results on 52 sequences are retold here after the supplement of paper PMC11208160.

A short description of the data set: recombinant UMI read abundance after kanamycin selection (control-corrected) (log10(CPM+1)); higher = more efficient recombination; extreme values may be limits of the assay; sequences stand for … in AGTGCAGAGAAAATCGGCCAGTTTTCTCTGCCTGCAGTCCGCATGCCGTGGGACCCCTTGGGTTCTAACCTGTTGCCTAGATTTATGCAGCGGACTGCCTTTCTCCCAAAGTGATAAACCGG…AGGTTGGTTTCACT; site = the 11-nt donor. The essentials:
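Pooled Escherichia coli screen of donor and donor-binding-loop pairs for the IS621 bridge recombinase. Each pair sits with a 12-nt UMI on a plasmid carrying a promoterless kanamycin gene. The library was co-electroporated with a target plasmid encoding a fixed target and T7-inducible recombinase, then plated with IPTG (0.07 mM) plus kanamycin, or unselected, each in two replicates. Recombinant UMIs were PCR-amplified across the donor–target junction and sequenced. Counts became CPM, averaged over replicates, scaled by control-derived factors and reported as log10(CPM+1).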
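Also: IS621 bridge recombinase in Escherichia coli cells against a fixed T5 target plasmid.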

“CAGAATACATGGACCGGTTTTCCCGGTAATCCGTATTTGCA (site CAGAATACTTG)”: the “recombinant UMI read abundance (log10)” value was 2.15.

Take “CAGAATACATGGACCGGTTTTCCCGGTAATCCGTATTTGCA (site GAGAATACTTG)”: the “recombinant UMI read abundance (log10)” value was 0.

As to “CAGAATACATGGACCGGTTTTCCCGGTAATCCGTATTTGCA (site TAGAATACTTG)”, the “recombinant UMI read abundance (log10)” value worked out at 0.38.

For “CAGAATCCATGGACCGGTTTTCCCGGTAATCCGTATTTGTC (site CAGAATCCTGA)”, the “recombinant UMI read abundance (log10)” value was 2.5.

As to “CAGAATCCATGGACCGGTTTTCCCGGTAATCCGTATTTGTC (site CGGAATCCTAA)”, the “recombinant UMI read abundance (log10)” value turned out to be 0.

Consider “CAGACATCATGGACCGGTTTTCCCGGTAATCCGTATTTGAG (site CAGACATCTCT)”, for which the “recombinant UMI read abundance (log10)” value came to 3.06.

As for “CAGACCGCATGGACCGGTTTTCCCGGTAATCCGTATTTGTC (site CAGACCGCTGA)”, the “recombinant UMI read abundance (log10)” value came out at 3.23.

Take “CAGATGGCATGGACCGGTTTTCCCGGTAATCCGTATTTGTA (site CAGATGGCTTA)”: the “recombinant UMI read abundance (log10)” value turned out to be 2.68.

As to “CAGCACGCATGGACCGGTTTTCCCGGTAATCCGTATTTGGG (site AAGCACGCTCC)”, the “recombinant UMI read abundance (log10)” value was 0.012.

As to “CAGCACGCATGGACCGGTTTTCCCGGTAATCCGTATTTGGG (site CAGCACGCTCC)”, the “recombinant UMI read abundance (log10)” value was 0.512.

Consider “CAGCACGCATGGACCGGTTTTCCCGGTAATCCGTATTTGGG (site GAGCACGCTCC)”, for which the “recombinant UMI read abundance (log10)” value was determined as 0.0111.

Consider “CAGCACGCATGGACCGGTTTTCCCGGTAATCCGTATTTGGG (site TAGCACGCTCC)”, for which the “recombinant UMI read abundance (log10)” value is 0.0838.

Consider “CAGCAGCCATGGACCGGTTTTCCCGGTAATCCGTATTTGGT (site CAGCAGCCTAC)”, for which the “recombinant UMI read abundance (log10)” value came out at 0.642.

For “CAGCATGCATGGACCGGTTTTCCCGGTAATCCGTATTTGAA (site CAGCATGCTTT)”, the “recombinant UMI read abundance (log10)” value worked out at 2.7.

Consider “CAGCCAACATGGACCGGTTTTCCCGGTAATCCGTATTTGCA (site CAGCCAACTTG)”, for which the “recombinant UMI read abundance (log10)” value is 2.34.

Consider “CAGCGGTCATGGACCGGTTTTCCCGGTAATCCGTATTTGCC (site CAGCGGTCTGG)”, for which the “recombinant UMI read abundance (log10)” value amounted to 2.76.

With “CAGCTCGCATGGACCGGTTTTCCCGGTAATCCGTATTTGTG (site CAGCTCGCTCA)”, the “recombinant UMI read abundance (log10)” value amounted to 0.0273.

For the sequence “CAGCTGGCATGGACCGGTTTTCCCGGTAATCCGTATTTGAT (site CAGCTGGCTAT)”, the “recombinant UMI read abundance (log10)” value worked out at 1.63.

In the case of “CAGGCATCATGGACCGGTTTTCCCGGTAATCCGTATTTGCA (site CAGGCATCTTG)”, the “recombinant UMI read abundance (log10)” value is 2.53.

Turning to “CAGGCCGCATGGACCGGTTTTCCCGGTAATCCGTATTTGAG (site CAGGCCGCTCT)”, the “recombinant UMI read abundance (log10)” value came out at 0.33.

On to “CAGGGGTCATGGACCGGTTTTCCCGGTAATCCGTATTTGAA (site CAGGGGTCTTT)”, for which the “recombinant UMI read abundance (log10)” value was found to be 3.02.

On to “CAGGGTCCATGGACCGGTTTTCCCGGTAATCCGTATTTGGA (site CAGGGTCCTTC)”, for which the “recombinant UMI read abundance (log10)” value was 0.288.

For “CAGGTCACATGGACCGGTTTTCCCGGTAATCCGTATTTGGG (site CAAGTCACTCC)”, the “recombinant UMI read abundance (log10)” value came to 0.0193.

For the sequence “CAGGTCACATGGACCGGTTTTCCCGGTAATCCGTATTTGGG (site CACGTCACTCC)”, the “recombinant UMI read abundance (log10)” value was found to be 0.00865.

“CAGGTCACATGGACCGGTTTTCCCGGTAATCCGTATTTGGG (site CAGGTCACTCC)”: the “recombinant UMI read abundance (log10)” value stood at 0.0396.

With “CAGGTCACATGGACCGGTTTTCCCGGTAATCCGTATTTGGG (site CATGTCACTCC)”, the “recombinant UMI read abundance (log10)” value worked out at 0.0163.

As for “CAGGTCACATGGACCGGTTTTCCCGGTAATCCGTATTTGTC (site CAGGTCACTGA)”, the “recombinant UMI read abundance (log10)” value turned out to be 2.7.

As for “CAGGTGACATGGACCGGTTTTCCCGGTAATCCGTATTTGTA (site CAGGTGACTTA)”, the “recombinant UMI read abundance (log10)” value came out at 1.83.

As to “CAGGTGGCATGGACCGGTTTTCCCGGTAATCCGTATTTGCG (site CAGGTGGCTCG)”, the “recombinant UMI read abundance (log10)” value came to 1.88.

For “CAGTAGACATGGACCGGTTTTCCCGGTAATCCGTATTTGGG (site CAGTAGACTCC)”, the “recombinant UMI read abundance (log10)” value stood at 0.653.

“CAGTAGACATGGACCGGTTTTCCCGGTAATCCGTATTTGGG (site CAGTCGACTCC)”: the “recombinant UMI read abundance (log10)” value was 0.00641.

“CAGTAGACATGGACCGGTTTTCCCGGTAATCCGTATTTGGG (site CAGTGGACTCC)”: the “recombinant UMI read abundance (log10)” value worked out at 0.00992.

In the case of “CAGTAGACATGGACCGGTTTTCCCGGTAATCCGTATTTGGG (site CAGTTGACTCC)”, the “recombinant UMI read abundance (log10)” value was determined as 0.033.

Consider “CAGTATCCATGGACCGGTTTTCCCGGTAATCCGTATTTGTT (site CAGTATCCTAA)”, for which the “recombinant UMI read abundance (log10)” value is 1.87.

Consider “CAGTATCCATGGACCGGTTTTCCCGGTAATCCGTATTTGTT (site CGGAATCCTAA)”, for which the “recombinant UMI read abundance (log10)” value was found to be 0.00316.

Regarding “CAGTCGACATGGACCGGTTTTCCCGGTAATCCGTATTTGGA (site CAGTCGACTAC)”, the “recombinant UMI read abundance (log10)” value turned out to be 0.0073.

For “CAGTCGACATGGACCGGTTTTCCCGGTAATCCGTATTTGGA (site CAGTCGACTCC)”, the “recombinant UMI read abundance (log10)” value was 0.0138.

For the sequence “CAGTCGACATGGACCGGTTTTCCCGGTAATCCGTATTTGGA (site CAGTCGACTGC)”, the “recombinant UMI read abundance (log10)” value turned out to be 0.00544.

Turning to “CAGTCGACATGGACCGGTTTTCCCGGTAATCCGTATTTGGA (site CAGTCGACTTC)”, the “recombinant UMI read abundance (log10)” value stood at 0.0121.

Take “CAGTCGACATGGACCGGTTTTCCCGGTAATCCGTATTTGGG (site AAGTCGACTCC)”: the “recombinant UMI read abundance (log10)” value came to 0.0145.

Consider “CAGTCGACATGGACCGGTTTTCCCGGTAATCCGTATTTGGG (site CAATCGACTCC)”, for which the “recombinant UMI read abundance (log10)” value was 0.0099.

As for “CAGTCGACATGGACCGGTTTTCCCGGTAATCCGTATTTGGG (site CACTCGACTCC)”, the “recombinant UMI read abundance (log10)” value came to 0.0212.

For the sequence “CAGTCGACATGGACCGGTTTTCCCGGTAATCCGTATTTGGG (site CAGACGACTCC)”, the “recombinant UMI read abundance (log10)” value worked out at 0.083.

“CAGTCGACATGGACCGGTTTTCCCGGTAATCCGTATTTGGG (site CAGCCGACTCC)”: the “recombinant UMI read abundance (log10)” value was determined as 0.00881.

For “CAGTCGACATGGACCGGTTTTCCCGGTAATCCGTATTTGGG (site CAGGCGACTCC)”, the “recombinant UMI read abundance (log10)” value amounted to 0.

For “CAGTCGACATGGACCGGTTTTCCCGGTAATCCGTATTTGGG (site CAGTAGACTCC)”, the “recombinant UMI read abundance (log10)” value came to 0.34.

As for “CAGTCGACATGGACCGGTTTTCCCGGTAATCCGTATTTGGG (site CAGTCAACTCC)”, the “recombinant UMI read abundance (log10)” value came out at 0.0265.

In the case of “CAGTCGACATGGACCGGTTTTCCCGGTAATCCGTATTTGGG (site CAGTCCACTCC)”, the “recombinant UMI read abundance (log10)” value was determined as 0.0168.

Consider “CAGTCGACATGGACCGGTTTTCCCGGTAATCCGTATTTGGG (site CAGTCGACTAC)”, for which the “recombinant UMI read abundance (log10)” value turned out to be 0.0109.

Turning to “CAGTCGACATGGACCGGTTTTCCCGGTAATCCGTATTTGGG (site CAGTCGACTCA)”, the “recombinant UMI read abundance (log10)” value was determined as 0.00973.

Consider “CAGTCGACATGGACCGGTTTTCCCGGTAATCCGTATTTGGG (site CAGTCGACTCC)”, for which the “recombinant UMI read abundance (log10)” value turned out to be 0.297.

For the sequence “CAGTCGACATGGACCGGTTTTCCCGGTAATCCGTATTTGGG (site CAGTCGACTCG)”, the “recombinant UMI read abundance (log10)” value came to 0.
